According to EP0676201B1, “Use of a riminophenazine for treating MDR resistance” (priority 1994, dated 1995):
Converted amounts (≈) assume the structure as drawn. Where two headings read alike, the source gives them in different places.

Tests used:
H69/P = assay: MTT assay, 7-day exposure: sensitivity of parent cells to chemotherapeutic agents with or without MDR inhibitor (Example 1); type: cell-based, human; conditions: for fold sensitivity compared with the chemotherapeutic agent without the MDR inhibitor, B669 / fold sensitivity compared with the chemotherapeutic agent without the MDR inhibitor, Clofazimine (B663) / fold sensitivity compared with the chemotherapeutic agent without the MDR inhibitor, CsA: value in parenthesis; for fold sensitivity compared with the chemotherapeutic agent without the MDR inhibitor, CsA: with CsA 5 µg/ml; for IC50: Homo sapiens, 168 h
From the text: (§1) A further test using no MDR inhibitor was used as a standard.

H69/LX4 = assay: MTT assay, 7-day exposure: sensitivity of resistant (MDR) cells to chemotherapeutic agents with or without MDR inhibitor (Example 1); type: cell-based; conditions: Homo sapiens, 168 h
From the text: as §1
The cell lines used were human small cell lung cancer cell line HP69/P and a multi-drug resistant (MDR) sub-line H69/LX4, both of which were supplied by the MRC Clinical Oncology and Radiotherapeutics Unit, Hills Road, Cambridge, England. The maintenance of the cell lines and drug response assays was done as described by Twentyman et al in British Journal of Cancer Volume 65 pages 335-340. The H69/LX4 line was originally described by Twentyman et al in British Journal of Cancer Volume 53, pages 529-637 (1986).
The data in parenthesis represents fold sensitivity compared with the chemotherapeutic agent without the MDR inhibitor.

K562/MMB = assay: MTT assay, 7-day exposure to riminophenazines alone or with fixed doxorubicin or vinblastine (Example 4); type: cell-based; conditions: Homo sapiens, K562, 168 h
From the text: A third cell line (562/MMB) used was a MDR leukemia cell line selected in vitro by progressive exposure to increasing concentrations of vinblastine in order to increase P-glycoprotein expression. […] This cell line expresses high levels of P-glycoprotein as determined by flowcytometry using the monoclonal antibody (MRK 16) against this molecule.
The effects were examined of a 7-day exposure of selected compounds on the sensitivity of the cell line (K562/MMB) to the standard chemotherapeutic agents doxorubicin and vinblastine, using the MTT assay.
The cells were seeded at 1 x 10^4 cells per well in 96 well microlitre plates in a volume of 200 µl of RPMI 1640 medium containing 10 % fetal calf serum and incubated with doxorubicin (12.5 ng/ml) or vinblastine (3 ng/ml). The amounts of MDR modulators used were 0.03, 0.06, 0.125, 0.5, 1.0 and 2.0 µg/ml.
After incubation at 37 °C for 7 days, 20 µl MTT (i.e. 3-[4,5-dimethylthiazol-2-yl]2,5-diphenyl-tetrazolium bromide) at 5 mg/ml was added to each well and the plates incubated for a further 4 hours. The cells were washed with phosphate buffered saline and the intracellular formazan crystals solubilized with dimethylsulphoxide, and the absorbency measured spectrophotometrically at a test wavelength of 540 nm and a reference wavelength of 620 nm.

[1] = H69/P, with Clofazimine 1 µg/ml
[2] = read-out: IC50 of chemotherapeutic agent, MDR INHIBITOR CsA
[3] = H69/P, no MDR inhibitor, 7 day exposure, mean of 2 - 4 experiments, read-out: IC50 of chemotherapeutic agent, MDR INHIBITOR None
[4] = H69/P, with B669 0.5 µg/ml, 7 day exposure, read-out: IC50 of chemotherapeutic agent, MDR INHIBITOR B669
[5] = H69/P, with Clofazimine 1 µg/ml, 7 day exposure, read-out: IC50 of chemotherapeutic agent, MDR INHIBITOR Clofazimine (B663)
[6] = H69/LX4, no MDR inhibitor, 7 day exposure, mean of 2 - 4 experiments, read-out: IC50 of chemotherapeutic agent, MDR INHIBITOR None
[7] = H69/LX4, with B669 0.5 µg/ml, 7 day exposure, read-out: IC50 of chemotherapeutic agent, MDR INHIBITOR B669
[8] = H69/LX4, with Clofazimine 1 µg/ml, 7 day exposure, read-out: IC50 of chemotherapeutic agent, MDR INHIBITOR Clofazimine (B663)
[9] = read-out: IC50 of chemotherapeutic agent, MDR INHIBITOR B669
[10] = read-out: IC50 of chemotherapeutic agent, MDR INHIBITOR Clofazimine (B663)
[11] = read-out: IC50 of chemotherapeutic agent, MDR INHIBITOR None
[12] = in the presence of doxorubicin (12 ng/ml), read-out: IC 50 of riminophenazine, Doxorubicin
[13] = in the presence of vinblastine (3 ng/ml), read-out: IC 50 of riminophenazine, Vinblastine
[14] = riminophenazine alone, mean of 2 experiments, read-out: IC 50 of riminophenazine, None

IC50 (K562/MMB; [12]) [µg/mL] | IC50 (K562/MMB; [13]) [µg/mL] | IC50 (K562/MMB; [14]) [µg/mL] | SMILES | fold sensitivity compared with the chemotherapeutic agent without the MDR inhibitor, B669 (H69/P; H69/P, with B669 0.5 µg/ml) [fold] | fold sensitivity compared with the chemotherapeutic agent without the MDR inhibitor, Clofazimine (B663) (H69/P; [1]) [fold] | fold sensitivity compared with the chemotherapeutic agent without the MDR inhibitor, CsA (H69/P; H69/P) [fold] | IC50 (H69/P; [2]) [µg/mL] | IC50 (H69/P; [3]) [µg/mL] | IC50 (H69/P; [4]) [µg/mL] | IC50 (H69/P; [5]) [µg/mL] | IC50 (H69/LX4; [2]) [µg/mL] | IC50 (H69/LX4; [6]) [µg/mL] | IC50 (H69/LX4; [7]) [µg/mL] | IC50 (H69/LX4; [8]) [µg/mL] | IC50 (H69/P; [9]) [µg/mL] | IC50 (H69/P; [10]) [µg/mL] | IC50 (H69/P; [11]) [µg/mL] | IC50 (H69/LX4; [9]) [µg/mL] | IC50 (H69/LX4; [10]) [µg/mL] | IC50 (H69/LX4; [11]) [µg/mL]
 |  |  | COc1cccc2c1C(=O)c1c(O)c3c(c(O)c1C2=O)C[C@@](O)(C(=O)CO)C[C@@H]3O[C@H]1C[C@H](N)[C@H](O)[C@H](C)O1 [Doxorubicin] | 1.0 | 0.8 | 1.0 | 0.003 (≈ 0.00552 µM) | 0.003 (≈ 0.00552 µM) | 0.003 (≈ 0.00552 µM) | 0.004 (≈ 0.00736 µM) | 0.01 (≈ 0.0184 µM) | 0.11 (≈ 0.202 µM) | 0.016 (≈ 0.0294 µM) | 0.01 (≈ 0.0184 µM) |  |  |  |  |  | 
 |  |  | O=P1(N(CCCl)CCCl)NCCCO1 (stereo not shown) [Cyclophosphamide] | 1.0 | 0.9 | 1.1 | 1.6 (≈ 6.13 µM) |  |  |  | 1.7 (≈ 6.51 µM) |  |  |  | 1.8 (≈ 6.89 µM) | 1.9 (≈ 7.28 µM) | 1.8 (≈ 6.89 µM) | 1.4 (≈ 5.36 µM) | 1.6 (≈ 6.13 µM) | 1.6 (≈ 6.13 µM)
 |  |  | CO[C@@]12[C@H](COC(N)=O)C3=C(C(=O)C(C)=C(N)C3=O)N1C[C@@H]1N[C@@H]12 [Mitomycin C] |  |  |  | 0.009 (≈ 0.0269 µM) |  |  |  | 0.08 (≈ 0.239 µM) |  | 0.04 (≈ 0.12 µM) | 0.06 (≈ 0.179 µM) | 0.01 (≈ 0.0299 µM) | 0.01 (≈ 0.0299 µM) |  |  |  | 
 |  |  | CN(Cc1cnc2nc(N)nc(N)c2n1)c1ccc(C(=O)N[C@@H](CCC(=O)O)C(=O)O)cc1 [Methotrexate] | 1.0 | 0.9 | 1.5 | 2.4 (≈ 5.28 µM) | 3.5 (≈ 7.7 µM) | 3.4 (≈ 7.48 µM) | 3.7 (≈ 8.14 µM) | 4.6 (≈ 10.1 µM) | 3.2 (≈ 7.04 µM) | 3.5 (≈ 7.7 µM) | 4.4 (≈ 9.68 µM) |  |  |  |  |  | 
 |  |  | COc1cccc2c1C(=O)c1c(O)c3c(c(O)c1C2=O)C[C@@](O)(C(C)=O)C[C@@H]3O[C@H]1C[C@H](N)[C@H](O)[C@H](C)O1 [Daunorubicin] | 1.2 | 1.0 | 1.0 | 0.002 (≈ 0.00379 µM) | 0.002 (≈ 0.00379 µM) | 0.0016 (≈ 0.00303 µM) | 0.002 (≈ 0.00379 µM) | 0.004 (≈ 0.00758 µM) | 0.036 (≈ 0.0682 µM) | 0.015 (≈ 0.0284 µM) | 0.009 (≈ 0.0171 µM) |  |  |  |  |  | 
 |  |  | CC[C@]1(O)C[C@@H]2CN(CCc3c([nH]c4ccccc34)[C@@](C(=O)OC)(c3cc4c(cc3OC)N(C)[C@H]3[C@@](O)(C(=O)OC)[C@H](OC(C)=O)[C@]5(CC)C=CCN6CC[C@]43[C@@H]65)C2)C1 [Vinblastine] | 1.1 | 1.3 | 1.4 | 0.0007 (≈ 0.000863 µM) | 0.001 (≈ 0.00123 µM) | 0.0009 (≈ 0.00111 µM) | 0.0008 (≈ 0.000986 µM) | 0.008 (≈ 0.00986 µM) | 0.12 (≈ 0.148 µM) | 0.008 (≈ 0.00986 µM) | 0.008 (≈ 0.00986 µM) |  |  |  |  |  | 
0.181 | < 0.05 | 0.333 (≈ 0.55 µM) | CC1(C)CC(N=c2cc3n(-c4cccc(Cl)c4)c4ccc(Cl)cc4nc-3cc2Nc2cccc(Cl)c2)CC(C)(C)N1 [Compound B4123, N,5-bis(3-chlorophenyl)-8-chloro-3,5-dihydro-3[(2,2',6',6'-tetramethyl-4-piperidyl)-imino]-2-phenazinamine] |  |  |  |  |  |  |  |  |  |  |  |  |  |  |  |  | 
0.168 | 0.07 | 0.425 (≈ 0.632 µM) | CC1(C)CC(N=c2cc3n(-c4cccc(C(F)(F)F)c4)c4ccc(Cl)cc4nc-3cc2Nc2cccc(C(F)(F)F)c2)CC(C)(C)N1 [Compound B4127, N,5-bis(3-trifluoromethylphenyl)-8-chloro-3,5-dihydro-3-[(2',2',6',6'-tetramethyl-4-piperidyl)-imino]-2-phenazinamine] |  |  |  |  |  |  |  |  |  |  |  |  |  |  |  |  | 
